Values after ≈ are worked out from the molar mass of the structure shown.
Assays:
Assay type in all cases: cell-based, human
[1] = test system: platelet aggregation in platelet-rich plasma, agonist collagen; experiment: Collagen-induced platelet aggregation in platelet-rich plasma (aggregometer); conditions: collagen 5 mg/L; for IC50: Homo sapiens, Platelet
Procedure: (§1) The experimental protocol described below was devised to determine the IC50 values of compounds isolated as described in 1.1.3. Crude bioassays to evaluate inhibition of platelet aggregation in vitro were performed on some crude extracts (data not shown) to help select fine fractions/compounds identified by HPLC for functional activity. This approach was considered necessary to avoid the need to assay each and ever compound (the would be thousands) in the fruit extracts.
(§2) An IC50 value represents the amount of a compound, in mg, required to inhibit by 50% the platelet aggregation induced under standardised conditions in 1 mL platelet-rich plasma, in comparison with control samples.
(§3) Blood for in vitro studies was collected from drug-free, healthy human volunteers, both male and female, aged 18-60 years, with normal platelet function. Subjects declared that they had not consumed drugs or supplements known to affect platelet function for a minimum of 10 days before providing a blood sample. Blood was collected after single venepuncture to an antecubital vein through siliconized needles into plastic citrated blood collection tubes (Sarstedt Monovettes, final concentration sodium citrate, 13 mmol/L). All blood was maintained at 37° C. from the time of blood sampling.
(§4) Platelet-rich plasma (PRP) was obtained by centrifugation of citrated blood for 15 minutes at 200×g, and was adjusted with platelet-poor plasma to a standard platelet number of 320±20×10^9/L prior to use. PRP was used for platelet function measurements within two hours.
(§5) The following agonists were used for platelet function measurements. Adenosine diphosphate (ADP), final concentration 10 μmol/L; collagen, final concentration 5 mg/L; arachidonic acid, final concentration […] (all from Helena Biosciences, Sunderland, UK); thrombin receptor-activating peptide (TRAP), final concentration […] (Sigma-Aldrich, Poole, UK). Agonists were prepared from stock solutions immediately before use, diluting into warmed physiological saline (0.9% NaCI).
(§6) Individual platelet inhibitors were prepared at a concentration of between 500 g/L and 100 g/L in either physiological saline, ultra-pure methanol or ultra-pure DMSO (Sigma-Aldrich, Poole, UK) and stored frozen until required. Stock solutions were then diluted with physiological saline immediately prior to use.
(§7) 450 μL PRP was incubated with 50 μL diluted inhibitor solution at 37° C. for 10 minutes, in low-retention epindorrfs. Inhibitor solutions were diluted such that the final concentration of methanol or DMSO in the PRP sample never exceeded 2%. Suitable control samples, containing 50 μL physiological saline matched for methanol or DMSO content as appropriate, were incubated simultaneously. For each inhibitor compound, 5 incubation concentrations were used; final concentrations of 0.05 mg/mL, 0.10 mg/mL, 1.00 mg/mL, 5.00 mg/mL and 10 mg/mL were used as standard.
(§8) After incubation with platelet inhibitors, PRP samples were transferred to glass cuvettes and the extent of aggregation induced by either ADP, collagen, TRAP or arachidonic acid was monitored over 10 minutes on a platelet aggregometer (PACKS 4, Helena Biosciences, Sunderland, UK). A control sample was run with each sample set. From the aggregation curves generated, the area under the curve was calculated for each PRP sample, and the inhibition of aggregation achieved at each inhibitor concentration was calculated by comparing the area under the curve for these PRP samples with that of the control sample. The inhibition of aggregation was expressed as % inhibition, compared to control, and from the 6 data points obtained per inhibitor compound, a dose-response curve was constructed. This curve was then used to predict the IC50 value for that inhibitor compound, as shown in 1.2, Results, and FIG. 1.
(§9) For each blood sample obtained, 6-point dose-response curves for 2 different inhibitory compounds could be generated. […]

[2] = test system: platelet aggregation in platelet-rich plasma, agonist thrombin receptor-activating peptide (TRAP); experiment: TRAP-induced platelet aggregation in platelet-rich plasma (aggregometer); conditions: TRAP 25 nmol/L; for IC50: Homo sapiens, Platelet
Procedure: as §1, §2, §3, §4, §5, §6, §7, §8, §9

[3] = test system: platelet aggregation in platelet-rich plasma, agonist ADP; experiment: ADP-induced platelet aggregation in platelet-rich plasma (aggregometer); conditions: ADP 10 μmol/L; for IC50: Homo sapiens, Platelet
Procedure: as §1, §2, §3, §4, §5, §6, §7, §8, §9

[4] = test system: platelet aggregation in platelet-rich plasma, agonist arachidonic acid; experiment: Arachidonic acid-induced platelet aggregation in platelet-rich plasma (aggregometer); conditions: arachidonic acid 500 U/L; for IC50: Homo sapiens, Platelet
Procedure: as §1, §2, §3, §4, §5, §6, §7, §8, §9

[5] = Table 3, mg needed for 50% inhibition in 1 mL PRP, compounds isolated from tomato extract
[6] = Table 4, compounds from sources other than tomatoes, mg per 1 mL PRP

Compound | IC50 [1, 6] | IC50 [4, 6] | IC50 [2, 6] | IC50 [3, 6] | further results
Nc1ncnc2c1ncn2[C@@H]1O[C@H](CO)[C@@H](O)[C@H]1O [Compound 2, Adenosine] |  |  |  |  | IC50 [1, 5]: 0.82 mg/mL (≈ 3.07 mM); IC50 [2, 5]: > 50 mg/mL; IC50 [3, 5]: 0.4 mg/mL (≈ 1.5 mM)
O=c1ccn([C@@H]2O[C@H](CO)[C@@H](O)[C@H]2O)c(=O)[nH]1 [Compound 3, Uridine] |  |  |  |  | IC50 [2, 5]: > 50 mg/mL
Nc1nc2c(ncn2[C@@H]2O[C@H](CO)[C@@H](O)[C@H]2O)c(=O)[nH]1 [Compound 4, Guanosine] |  |  |  |  | IC50 [1, 5]: 0.53 mg/mL (≈ 1.87 mM); IC50 [4, 5]: 0.91 mg/mL (≈ 3.21 mM); IC50 [3, 5]: 0.25 mg/mL (≈ 0.883 mM)
Nc1ncnc2c1ncn2[C@@H]1O[C@H](CO)[C@@H](OP(=O)(O)O)[C@H]1O [Compound 5, Adenosine 3′-monophospate] |  |  |  |  | IC50 Collagen [1, 5]: 0.28 mg; IC50 AA [4, 5]: 2.41 mg; IC50 TRAP [2, 5]: 24.51 mg; IC50 ADP [3, 5]: 0.12 mg
Nc1ncnc2c1ncn2[C@@H]1O[C@H](COP(=O)(O)O)[C@@H](O)[C@H]1O [Compound 6, Adenosine 5′-monophospate] |  |  |  |  | IC50 Collagen [1, 5]: 0.28 mg; IC50 AA [4, 5]: 2.41 mg; IC50 TRAP [2, 5]: 24.51 mg; IC50 ADP [3, 5]: 0.12 mg
O=C(/C=C/c1ccc(O)c(O)c1)O[C@@H]1C[C@](O)(C(=O)O)C[C@@H](O)[C@H]1O [Compound 14, Chlorogenic acid] |  |  |  |  | IC50 [1, 5]: 10.1 mg/mL (≈ 28.5 mM); IC50 [4, 5]: 0.77 mg/mL (≈ 2.17 mM); IC50 [2, 5]: 1.1 mg/mL (≈ 3.1 mM); IC50 [3, 5]: 10.1 mg/mL (≈ 28.4 mM)
O=C(O)c1ccccc1 [Compound 20, Benzoic acid] |  |  |  |  | IC50 [1, 5]: 17.7 mg/mL (≈ 145 mM); IC50 [4, 5]: 15.5 mg/mL (≈ 127 mM); IC50 [2, 5]: 18.2 mg/mL (≈ 149 mM); IC50 [3, 5]: 25.1 mg/mL (≈ 206 mM)
O=C(O)C=Cc1ccccc1 [Compound 22, Cinnamic acid] | 8.76 mg/mL (≈ 59.1 mM) | 16.1 mg/mL (≈ 109 mM) | 18.2 mg/mL (≈ 123 mM) | 26.1 mg/mL (≈ 176 mM) | IC50 [4, 5]: 0.22 mg/mL (≈ 1.48 mM)
C[C@@H]1O[C@@H](OC[C@H]2O[C@@H](Oc3c(-c4ccc(O)c(O)c4)oc4cc(O)cc(O)c4c3=O)[C@H](O)[C@@H](O)[C@@H]2O)[C@H](O)[C@H](O)[C@H]1O [Compound 27, Rutin] |  |  |  |  | IC50 [4, 5]: 0.41 mg/mL (≈ 0.672 mM)
O=c1c(O)c(-c2ccc(O)c(O)c2)oc2cc(O)cc(O)c12 [Compound 30, Quercetin] |  |  |  |  | IC50 [1, 5]: > 50 mg/mL; IC50 [3, 5]: > 50 mg/mL
O=c1c(O)c(-c2ccc(O)cc2)oc2cc(O)cc(O)c12 [Compound 31, Kaempferol] |  |  |  |  | IC50 [1, 5]: > 50 mg/mL; IC50 [3, 5]: > 50 mg/mL
O=C1C[C@@H](c2ccc(O)cc2)Oc2cc(O)cc(O)c21 [Compound 32, Naringenin] |  |  |  |  | IC50 [1, 5]: > 50 mg/mL; IC50 [3, 5]: > 50 mg/mL
O=C(O)c1cc(O)c(O)c(O)c1 [Gallic acid] | 14.4 mg/mL (≈ 84.5 mM) | 14.4 mg/mL (≈ 84.9 mM) | 18.9 mg/mL (≈ 111 mM) | 20.2 mg/mL (≈ 119 mM) | 
Nc1nc2c(ncn2[C@@H]2O[C@H](COP(=O)(O)O)[C@@H](O)[C@H]2O)c(=O)[nH]1 [Guanosine 5′-monophosphate] | 0.31 mg/mL (≈ 0.853 mM) | 0.36 mg/mL (≈ 0.991 mM) | 20.1 mg/mL (≈ 55.4 mM) | 0.1 mg/mL (≈ 0.275 mM) | 
OC[C@H]1O[C@@H](n2cnc3c(O)ncnc32)[C@H](O)[C@@H]1O [Inosine] | 9.3 mg/mL (≈ 34.7 mM) |  | > 50 mg/mL | 3.5 mg/mL (≈ 13 mM) | 
O=c1cc(-c2ccc(O)c(O)c2)oc2cc(O)cc(O)c12 [Luteolin] | > 50 mg/mL | 5.18 mg/mL (≈ 18.1 mM) | 26.2 mg/mL (≈ 91.5 mM) | > 50 mg/mL | 
O=c1c(O)c(-c2cc(O)c(O)c(O)c2)oc2cc(O)cc(O)c12 [Myricetin] | 24.6 mg/mL (≈ 77.3 mM) | 0.22 mg/mL (≈ 0.691 mM) | 12.9 mg/mL (≈ 40.6 mM) | 22.1 mg/mL (≈ 69.6 mM) | 
O=C(O)c1ccc(O)c(O)c1 [Protocatechuic acid] | 23.7 mg/mL (≈ 154 mM) | 25.6 mg/mL (≈ 166 mM) | 30.8 mg/mL (≈ 200 mM) | 30.2 mg/mL (≈ 196 mM) | 
C[C@@H]1O[C@@H](Oc2c(-c3ccc(O)c(O)c3)oc3cc(O)cc(O)c3c2=O)[C@H](O)[C@H](O)[C@H]1O [Quercitrin] | > 50 mg/mL | 12 mg/mL (≈ 26.8 mM) | 16 mg/mL (≈ 35.6 mM) | > 50 mg/mL | 
COc1cc(/C=C/C(=O)O)cc(OC)c1O [Sinapic acid] | 24.9 mg/mL (≈ 111 mM) | 24.8 mg/mL (≈ 110 mM) | 30.4 mg/mL (≈ 135 mM) | 26.1 mg/mL (≈ 116 mM) | 
COc1cc(C(=O)O)cc(OC)c1O [Syringic acid] | 30.8 mg/mL (≈ 155 mM) | 22.5 mg/mL (≈ 113 mM) | 28.3 mg/mL (≈ 143 mM) | 37.2 mg/mL (≈ 188 mM) | 
O=C(O)/C=C/c1ccccc1O [o-Coumaric acid] | 28.9 mg/mL (≈ 176 mM) | 9.48 mg/mL (≈ 57.7 mM) | 17.4 mg/mL (≈ 106 mM) | 32.2 mg/mL (≈ 196 mM) | 
Naringin [Compound 26] |  |  |  |  | IC50 Collagen [1, 5]: 29.55 mg; IC50 AA [4, 5]: 0.31 mg; IC50 TRAP [2, 5]: 9.13 mg; IC50 ADP [3, 5]: 28.1 mg
Quercetin-3-O-glycoside [Compound 23] |  |  |  |  | IC50 Collagen [1, 5]: 28.43 mg; IC50 AA [4, 5]: 0.19 mg; IC50 TRAP [2, 5]: 12.06 mg; IC50 ADP [3, 5]: 25.18 mg

Reference: patent US20110212913A1, “THERAPEUTIC COMPOSITIONS COMPRISING PHENOLIC ACIDS FOR TREATING CONDITIONS RELATED TO INAPPROPRIATE PLATELET AGGREGATION” (PROVEXIS NATURAL PRODUCTS LIMITED, priority 2008, published 2011)
